Where a SMILES comes first, the peptide text is derived from it.
biological target: Nicotinic acetylcholine receptor alpha9/alpha10 (Rattus norvegicus, UniProt P43144+Q9JLB5); experiment: Antagonist activity at rat alpha9alpha10 nACh receptor expressed in Xenopus oocyte assessed as inhibition of acetylcholine-induced response at -70 mV holding potential by voltage-clamp based electrophysiological assay; format: cell-based
Sequence (P43144 whole entry): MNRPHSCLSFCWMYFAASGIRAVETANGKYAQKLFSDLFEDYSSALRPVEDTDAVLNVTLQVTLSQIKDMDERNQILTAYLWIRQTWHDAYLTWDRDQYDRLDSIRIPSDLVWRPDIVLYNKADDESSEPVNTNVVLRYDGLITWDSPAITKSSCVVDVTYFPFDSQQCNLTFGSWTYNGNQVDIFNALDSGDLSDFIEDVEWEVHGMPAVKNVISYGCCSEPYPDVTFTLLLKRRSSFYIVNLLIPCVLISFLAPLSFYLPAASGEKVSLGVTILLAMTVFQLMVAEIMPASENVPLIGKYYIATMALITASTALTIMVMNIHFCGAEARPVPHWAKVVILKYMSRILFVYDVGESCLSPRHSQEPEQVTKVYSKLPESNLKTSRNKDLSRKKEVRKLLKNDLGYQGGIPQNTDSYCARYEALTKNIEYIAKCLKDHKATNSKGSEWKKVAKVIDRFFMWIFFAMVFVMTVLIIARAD
Sequence (Q9JLB5 whole entry): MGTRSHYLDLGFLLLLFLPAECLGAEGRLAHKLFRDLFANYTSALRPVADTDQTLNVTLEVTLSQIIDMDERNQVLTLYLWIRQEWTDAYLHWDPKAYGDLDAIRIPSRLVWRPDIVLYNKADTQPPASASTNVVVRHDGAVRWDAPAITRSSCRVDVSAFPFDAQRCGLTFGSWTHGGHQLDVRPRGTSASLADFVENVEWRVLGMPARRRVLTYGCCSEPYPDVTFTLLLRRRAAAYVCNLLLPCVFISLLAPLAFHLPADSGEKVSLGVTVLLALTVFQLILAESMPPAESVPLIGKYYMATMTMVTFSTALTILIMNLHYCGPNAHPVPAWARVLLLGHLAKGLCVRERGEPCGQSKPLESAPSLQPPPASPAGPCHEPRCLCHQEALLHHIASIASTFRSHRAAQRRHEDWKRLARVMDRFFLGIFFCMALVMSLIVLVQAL

Going from `CC[C@H](C)[C@@H]1NC(=O)[C@H](CCCNC(=N)N)NC(=O)[C@H](CCCNC(=N)N)NC(=O)[C@@H](NC(=O)[C@H](Cc2ccc(O)cc2)NC(=O)[C@H](CCCNC(=N)N)NC(=O)[C@H](C)NC(=O)[C@H](CCCNC(=N)N)NC(=O)[C@H](C)NC(=O)[C@H](CC(=O)O)NC(=O)[C@H](Cc2ccc(O)cc2)NC(=O)[C@@H]2CCCN2C(=O)[C@H](CO)NC(=O)[C@H](CCCNC(=N)N)NC(=O)[C@@H]2CSSC[C@H](NC(=O)[C@@H](N)[C@@H](C)O)C(=O)N[C@@H](CCCNC(=N)N)C(=O)N[C@@H](CO)C(=O)N[C@@H](CO)C(=O)NCC(=O)N[C@@H](CCCNC(=N)N)C(=O)N[C@@H](Cc3ccc(O)cc3)C(=O)N2)CSSC[C@@H](C(=O)N[C@H](C(=O)O)C(C)C)NC(=O)[C@H](C)NC(=O)[C@H](CC(=O)O)NC(=O)[C@H]([C@@H](C)O)NC1=O` to `CC[C@H](C)[C@@H]1NC(=O)[C@H](CCCNC(=N)N)NC(=O)[C@H](CCCNC(=N)N)NC(=O)[C@@H](NC(=O)[C@H](Cc2ccc(O)cc2)NC(=O)[C@H](CCCNC(=N)N)NC(=O)[C@H](C)NC(=O)[C@H](C)NC(=O)[C@H](CCCNC(=N)N)NC(=O)[C@H](CC(=O)O)NC(=O)[C@H](Cc2ccc(O)cc2)NC(=O)[C@@H]2CCCN2C(=O)[C@H](CO)NC(=O)[C@H](CCCNC(=N)N)NC(=O)[C@@H]2CSSC[C@H](NC(=O)[C@@H](N)[C@@H](C)O)C(=O)N[C@@H](CCCNC(=N)N)C(=O)N[C@@H](CO)C(=O)N[C@@H](CO)C(=O)NCC(=O)N[C@@H](CCCNC(=N)N)C(=O)N[C@@H](Cc3ccc(O)cc3)C(=O)N2)CSSC[C@@H](C(=O)N[C@H](C(=O)O)C(C)C)NC(=O)[C@H](C)NC(=O)[C@H](CC(=O)O)NC(=O)[C@H]([C@@H](C)O)NC1=O`, the IC50 falls from 230 nM to 130 nM (1.8-fold). The second is the more potent here.

Going from `CC[C@H](C)[C@@H]1NC(=O)[C@H](CCCNC(=N)N)NC(=O)[C@H](CCCNC(=N)N)NC(=O)[C@@H](NC(=O)[C@H](Cc2ccc(O)cc2)NC(=O)[C@H](C)NC(=O)[C@H](C)NC(=O)[C@H](CCCNC(=N)N)NC(=O)[C@H](CCCNC(=N)N)NC(=O)[C@H](CC(=O)O)NC(=O)[C@H](Cc2ccc(O)cc2)NC(=O)[C@@H]2CCCN2C(=O)[C@H](CO)NC(=O)[C@H](CCCNC(=N)N)NC(=O)[C@@H]2CSSC[C@H](NC(=O)[C@@H](N)[C@@H](C)O)C(=O)N[C@@H](CCCNC(=N)N)C(=O)N[C@@H](CO)C(=O)N[C@@H](CO)C(=O)NCC(=O)N[C@@H](CCCNC(=N)N)C(=O)N[C@@H](Cc3ccc(O)cc3)C(=O)N2)CSSC[C@@H](C(=O)N[C@H](C(=O)O)C(C)C)NC(=O)[C@H](C)NC(=O)[C@H](CC(=O)O)NC(=O)[C@H]([C@@H](C)O)NC1=O` to `CC[C@H](C)[C@@H]1NC(=O)[C@H](CCCNC(=N)N)NC(=O)[C@H](CCCNC(=N)N)NC(=O)[C@@H](NC(=O)[C@H](Cc2ccc(O)cc2)NC(=O)[C@H](C)NC(=O)[C@H](CCCNC(=N)N)NC(=O)[C@H](CCCNC(=N)N)NC(=O)[C@H](C)NC(=O)[C@H](CC(=O)O)NC(=O)[C@H](Cc2ccc(O)cc2)NC(=O)[C@@H]2CCCN2C(=O)[C@H](CO)NC(=O)[C@H](CCCNC(=N)N)NC(=O)[C@@H]2CSSC[C@H](NC(=O)[C@@H](N)[C@@H](C)O)C(=O)N[C@@H](CCCNC(=N)N)C(=O)N[C@@H](CO)C(=O)N[C@@H](CO)C(=O)NCC(=O)N[C@@H](CCCNC(=N)N)C(=O)N[C@@H](Cc3ccc(O)cc3)C(=O)N2)CSSC[C@@H](C(=O)N[C@H](C(=O)O)C(C)C)NC(=O)[C@H](C)NC(=O)[C@H](CC(=O)O)NC(=O)[C@H]([C@@H](C)O)NC1=O`, the IC50 rises from 230 nM to 350 nM (1.5-fold).

First: CC[C@H](C)[C@@H]1NC(=O)[C@H](C)NC(=O)[C@H](C)NC(=O)[C@@H](NC(=O)[C@H](Cc2ccc(O)cc2)NC(=O)[C@H](CCCNC(=N)N)NC(=O)[C@H](CCCNC(=N)N)NC(=O)[C@H](CCCNC(=N)N)NC(=O)[C@H](CCCNC(=N)N)NC(=O)[C@H](CC(=O)O)NC(=O)[C@H](Cc2ccc(O)cc2)NC(=O)[C@@H]2CCCN2C(=O)[C@H](CO)NC(=O)[C@H](CCCNC(=N)N)NC(=O)[C@@H]2CSSC[C@H](NC(=O)[C@@H](N)[C@@H](C)O)C(=O)N[C@@H](CCCNC(=N)N)C(=O)N[C@@H](CO)C(=O)N[C@@H](CO)C(=O)NCC(=O)N[C@@H](CCCNC(=N)N)C(=O)N[C@@H](Cc3ccc(O)cc3)C(=O)N2)CSSC[C@@H](C(=O)N[C@H](C(=O)O)C(C)C)NC(=O)[C@H](C)NC(=O)[C@H](CC(=O)O)NC(=O)[C@H]([C@@H](C)O)NC1=O
Second: CC[C@H](C)[C@@H]1NC(=O)[C@H](CCCNC(=N)N)NC(=O)[C@H](CCCNC(=N)N)NC(=O)[C@@H](NC(=O)[C@H](Cc2ccc(O)cc2)NC(=O)[C@H](CCCNC(=N)N)NC(=O)[C@H](CCCNC(=N)N)NC(=O)[C@H](CCCNC(=N)N)NC(=O)[C@H](CCCNC(=N)N)NC(=O)[C@H](CC(=O)O)NC(=O)[C@H](Cc2ccc(O)cc2)NC(=O)[C@@H]2CCCN2C(=O)[C@H](CO)NC(=O)[C@H](CCCNC(=N)N)NC(=O)[C@@H]2CSSC[C@H](NC(=O)[C@@H](N)[C@@H](C)O)C(=O)N[C@@H](C)C(=O)N[C@@H](CO)C(=O)N[C@@H](CO)C(=O)NCC(=O)N[C@@H](C)C(=O)N[C@@H](Cc3ccc(O)cc3)C(=O)N2)CSSC[C@@H](C(=O)N[C@H](C(=O)O)C(C)C)NC(=O)[C@H](C)NC(=O)[C@H](CC(=O)O)NC(=O)[C@H]([C@@H](C)O)NC1=O (HELM PEPTIDE1{T.C.A.S.S.G.A.Y.C.R.S.P.Y.D.R.R.R.R.Y.C.R.R.I.T.D.A.C.V}$PEPTIDE1,PEPTIDE1,2:R3-9:R3|PEPTIDE1,PEPTIDE1,20:R3-27:R3$$$V2.0)
The IC50 of the first is 2.1-fold lower: 180 nM for the first, 370 nM for the second. The first is the more potent here.

`CC[C@H](C)[C@@H]1NC(=O)[C@H](CCCNC(=N)N)NC(=O)[C@H](CCCNC(=N)N)NC(=O)[C@@H](NC(=O)[C@H](Cc2ccc(O)cc2)NC(=O)[C@H](CCCNC(=N)N)NC(=O)[C@H](CCCNC(=N)N)NC(=O)[C@H](CCCNC(=N)N)NC(=O)[C@H](CCCNC(=N)N)NC(=O)[C@H](CC(=O)O)NC(=O)[C@H](Cc2ccc(O)cc2)NC(=O)[C@@H]2CCCN2C(=O)[C@H](CO)NC(=O)[C@H](C)NC(=O)[C@@H]2CSSC[C@H](NC(=O)[C@@H](N)[C@@H](C)O)C(=O)N[C@@H](C)C(=O)N[C@@H](CO)C(=O)N[C@@H](CO)C(=O)NCC(=O)N[C@@H](CCCNC(=N)N)C(=O)N[C@@H](Cc3ccc(O)cc3)C(=O)N2)CSSC[C@@H](C(=O)N[C@H](C(=O)O)C(C)C)NC(=O)[C@H](C)NC(=O)[C@H](CC(=O)O)NC(=O)[C@H]([C@@H](C)O)NC1=O` (HELM PEPTIDE1{T.C.A.S.S.G.R.Y.C.A.S.P.Y.D.R.R.R.R.Y.C.R.R.I.T.D.A.C.V}$PEPTIDE1,PEPTIDE1,2:R3-9:R3|PEPTIDE1,PEPTIDE1,20:R3-27:R3$$$V2.0) and `CC[C@H](C)[C@@H]1NC(=O)[C@H](CCCNC(=N)N)NC(=O)[C@H](CCCNC(=N)N)NC(=O)[C@@H](NC(=O)[C@H](Cc2ccc(O)cc2)NC(=O)[C@H](CCCNC(=N)N)NC(=O)[C@H](CCCNC(=N)N)NC(=O)[C@H](CCCNC(=N)N)NC(=O)[C@H](CCCNC(=N)N)NC(=O)[C@H](CC(=O)O)NC(=O)[C@H](Cc2ccc(O)cc2)NC(=O)[C@@H]2CCCN2C(=O)[C@H](CO)NC(=O)[C@H](C)NC(=O)[C@@H]2CSSC[C@H](NC(=O)[C@@H](N)[C@@H](C)O)C(=O)N[C@@H](CCCNC(=N)N)C(=O)N[C@@H](CO)C(=O)N[C@@H](CO)C(=O)NCC(=O)N[C@@H](C)C(=O)N[C@@H](Cc3ccc(O)cc3)C(=O)N2)CSSC[C@@H](C(=O)N[C@H](C(=O)O)C(C)C)NC(=O)[C@H](C)NC(=O)[C@H](CC(=O)O)NC(=O)[C@H]([C@@H](C)O)NC1=O` (HELM PEPTIDE1{T.C.R.S.S.G.A.Y.C.A.S.P.Y.D.R.R.R.R.Y.C.R.R.I.T.D.A.C.V}$PEPTIDE1,PEPTIDE1,2:R3-9:R3|PEPTIDE1,PEPTIDE1,20:R3-27:R3$$$V2.0) are within 1.5-fold of each other in IC50: 590 nM for the first, 440 nM for the second.

From ChEMBL document CHEMBL5346973 (J Med Chem, 2023)
